The values that follow are results of earlier work, collected in paper PMC9501525, “Conjugation of a Cationic Cell-Penetrating Peptide with a Novel Kunitzin-like Trypsin Inhibitor: New Insights for Enhancement of Peptide Bioactivities” (Pharmaceutics, 2022).

The test system of data set [1] is P. aeruginosa (ATCC 9027). Particulars: ref [26]; cited from earlier work. The text has this:
(§1) Table 3 MIC/MBC of kunitzin-OV2 and its relatives against different microorganisms. | column: TAT ^a

The subject of the next data set is S. aureus (ATCC 6538). Particulars: ref [26]; cited from earlier work.
Text: as §1

For the next data set, the system named is MRSA (NCTC 12493). Conditions: ref [26]; cited from earlier work.
Text: as §1

The next data set deals with C. albicans (ATCC 10231). Particulars: ref [26]; cited from earlier work.
Text: as §1

The subject of a further data set is E. coli (ATCC 8739). Particulars: ref [26]; cited from earlier work.
Text: as §1

The next data set concerns E. coli. The arrangement: method as in PMID 28943153. Particulars: ref [41]; cited from earlier work.

For orientation: MBC means the lowest tested concentration that kills the bacteria rather than only halting them. What is called MIC is the lowest concentration found to suppress growth. As for “RKKRRQRRR [TAT, classical short cationic cell-penetrating peptide TAT48–56]”, the MBC (in data set [1]; in the data set with S. aureus (ATCC 6538); with MRSA (NCTC 12493); in the data set on C. albicans (ATCC 10231); with E. coli (ATCC 8739)) was greater than 128 µM each time. Further, the MIC (in data set [1]; with S. aureus (ATCC 6538); with MRSA (NCTC 12493); in the data set with C. albicans (ATCC 10231); in the data set with E. coli (ATCC 8739)) was greater than 128 µM each time.

As for “melittin: typical AMP, literature comparator, ref”, in the data set with E. coli, the MBC is 64 to 128 mg/L and the MIC was 40 to 42.5 mg/L.
